The text below walks through data of US8575179B2, “Dihydropyrazolopyrimidinone derivatives” (MSD K.K., priority 2008, dated 2013).

In test [1] the test system is Cdc2 (Cdk1) tyrosine-15 phosphorylation in NCI-H1299 cells. In words: Inhibitory effect on Cdc2 (Cdk1) tyrosine-15 phosphorylation in cells (Pharmacological Test 2, ELISA). Format: cell-based. The settings on record: Homo sapiens; NCI-H1299 cells pretreated with 200 nM camptothecin for 16 hours, test compound with nocodazole for 8 hours; ratio of tyrosine-15-phosphorylated Cdc2 to Cdc2. The source says: Pharmacological Test 2 (Method for Determining Drug Effect Using Cells (Inhibitory Effect on Cdc2 (Cdk1) Tyrosine-15 Phosphorylation))
Fetal bovine serum (FBS) was purchased from Morgate, Inc.; an RPMI-1640 medium and a DMEM medium were purchased from Invitrogen, Inc.; camptothecin was purchased from Sigma Co.; gemcitabine was purchased from Eli Lilly Japan K.K.; nocodazole and protease inhibitor cocktail were purchased from Sigma Co.; a rabbit anti-Cdc2 antibody and a mouse anti-Cdc2 antibody were purchased from Santa Cruz Biotechnology, Inc.; a rabbit anti-tyrosine-15-phosphorylated Cdc2 antibody and a horseradish peroxidase-labeled anti-mouse IgG antibody were purchased from Cell Signaling Technology, Inc.; and Sure Blue Reserve TMB peroxidase substrate was purchased from Kirkegaard & Perry Laboratories, Inc.
A human non-small cell lung cancer cell line (NCI-H1299) and a human colon cancer cell line (WiDr) can be obtained from American Type Culture Collection (ATCC).
In the method using NCI-H1299 cells, the cells were suspended in an RPMI-1640 medium supplemented with 10% FBS, and 100 μl, of the resulting cell suspension was dispensed in a Nunclon Delta treated 96-well plastic plate purchased from Nunc, Inc. at a density of 2000 cells per well, and the plate was incubated overnight at 37° C. under an atmosphere of 5% CO2 and 95% air. Camptothecin was dissolved in dimethyl sulfoxide (DMSO) and further the resulting solution was diluted with an RPMI-1640 medium supplemented with 10% FBS. Then, 50 μL of the diluted solution was added to each well of the plate in which the cells were seeded in advance such that the final concentration of camptothecin was 200 nM, and the plate was incubated at 37° C. under an atmosphere of 5% CO2 and 95% air for 16 hours. A test compound was serially diluted with DMSO, and further diluted with an RPMI-1640 medium supplemented with 10% FBS containing 4000 nM nocodazole. Then, 50 μL of the test compound solution was added to each well of the plate in which the cells treated with camptothecin were seeded, and the plate was incubated at 37° C. under an atmosphere of 5% CO2 and 95% air for 8 hours. Then, the culture medium was removed from each well and 100 μL of a cell lysis buffer was added to each well, and the plate was shaken at 4° C. for 2 hours, and thereafter the liquid in the plate was frozen at −80° C. and then thawed, which was used as a lysed cell solution. Cdc2 and tyrosine-15-phosphorylated Cdc2 in this lysed cell solution were measured by an enzyme-linked immunosorbent assay (ELISA method), and a ratio of tyrosine-15-phosphorylated Cdc2 to Cdc2 was calculated to determine a 50% effective concentration (EC50, nM) of the test compound for inhibition of phosphorylation in cells. […]
Background: ELISA stands for enzyme-linked immunosorbent assay.

Test [2] addresses T1, Wee1 kinase (Homo sapiens, UniProt P30291).
T1 construct: made in house; host or cells: Sf9 insect cells (recombinant baculovirus)
The test is described as follows: Wee1 kinase inhibitory effect (Pharmacological Test 1). The conditions noted are these: GST-tagged Wee1 kinase, Poly(Lys, Tyr) substrate, 10 μM ATP, 30° C. for 30 minutes. In kind it is biochemical. An excerpt:
Pharmacological Test 1 (Wee1 Kinase Inhibitory Effect)
A cDNA of Wee1 kinase with glutathione-S-transferase (GST) fused at the amino terminal thereof was inserted into a baculovirus expression vector to construct a recombinant baculovirus, with which cells of an insect cell line Sf9 were infected to overexpress the target protein. The infected cells were collected and lysed, and then the GST-tagged Wee1 kinase protein was adsorbed to a glutathione column and eluted from the column with glutathione, and the active fraction was desalted in a desalting column to give a purified enzyme.
In measurement of the Wee1 kinase activity, a synthetic peptide, Poly(Lys, Tyr) hydrobromide (Lys:Tyr (4:1)) purchased from Sigma was used as the substrate.
The amount of the reaction mixture was 21.1 μL; and the composition of the reaction buffer was 50 mM Tris-HCl buffer (pH 7.4)/10 mM magnesium chloride/1 mM dithiothreitol. The purified Wee1 kinase, 2.5 μg of the substrate peptide, 10 μM of non-labeled adenosine triphosphate (ATP) and 1 μCi of [γ-^33P]-labeled ATP (2500 Ci/mmol or more) were added to the reaction buffer, and the resulting mixture was incubated at 30° C. for 30 minutes. Thereafter, 10 μL of 350 mM phosphate buffer was added to the reaction system to stop the reaction. The substrate peptide was adsorbed on a P81 paper filter 96-well plate and the plate was washed several times with 130 mM phosphate buffer, and the radioactivity thereof was counted using a liquid scintillation counter. The [γ-^33P]-labeled ATP was purchased from Amersham Bioscience, Ltd.
The addition of a test compound to the reaction system was carried out by preparing a series of dilutions of the compound with dimethyl sulfoxide (DMSO) and adding 1.1 μL of each dilution to the reaction system. As a control, 1.1 μL of DMSO was added to the reaction system.

T1 sequence (P30291 whole entry): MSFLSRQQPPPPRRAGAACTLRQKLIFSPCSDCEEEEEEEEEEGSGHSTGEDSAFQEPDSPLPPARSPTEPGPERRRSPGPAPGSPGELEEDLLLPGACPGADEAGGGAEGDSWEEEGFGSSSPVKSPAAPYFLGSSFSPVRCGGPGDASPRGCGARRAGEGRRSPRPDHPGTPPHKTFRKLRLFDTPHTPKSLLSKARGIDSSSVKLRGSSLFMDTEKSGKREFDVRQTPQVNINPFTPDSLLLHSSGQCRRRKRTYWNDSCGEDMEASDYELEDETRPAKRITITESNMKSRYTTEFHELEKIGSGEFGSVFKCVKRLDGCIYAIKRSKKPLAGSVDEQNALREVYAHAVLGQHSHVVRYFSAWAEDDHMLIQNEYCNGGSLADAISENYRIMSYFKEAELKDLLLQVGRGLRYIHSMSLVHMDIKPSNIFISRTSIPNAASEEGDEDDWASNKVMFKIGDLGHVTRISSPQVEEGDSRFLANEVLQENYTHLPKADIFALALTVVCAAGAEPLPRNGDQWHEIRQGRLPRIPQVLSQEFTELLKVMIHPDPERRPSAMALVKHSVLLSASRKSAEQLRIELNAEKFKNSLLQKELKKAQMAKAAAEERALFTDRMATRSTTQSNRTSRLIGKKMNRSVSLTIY

A word on the IC50: it is the concentration that inhibits the measured activity by half. With `CN1CCN(c2ccc(Nc3ncc4c(=O)n(-c5c(Cl)cccc5Cl)c(=O)n(C)c4n3)cc2)CC1` [Example 4, 3-(2,6-dichlorophenyl)-1-methyl-7-{[4-(4-methylpiperazin-1-yl)phenyl]amino}pyrimido[4,5-d]pyrimidine-2,4(1H,3H)-dione], the IC50 in test [1] and in test [2] was 33 nM in each case.

In the case of `COC(C)(C)C(=O)N1CCN(c2ccc(Nc3ncc4c(=O)n(-c5c(Cl)cccc5Cl)c(=O)[nH]c4n3)cc2)CC1` [Example 33, 3-(2,6-dichlorophenyl)-7-({4-[4-(2-methoxy-2-methylpropionyl)piperazin-1-yl]phenyl}amino)pyrimido[4,5-d]pyrimidine-2,4(1H,3H)-dione], the IC50 in test [2] amounted to 9 nM.

For `Cc1cc(Nc2ncc3c(=O)n(-c4c(Cl)cccc4Cl)c(=O)[nH]c3n2)ccc1N1CCN(C)CC1` [Example 1, 3-(2,6-dichlorophenyl)-7-{[3-methyl-4-(4-methylpiperazin-1-yl)phenyl]amino}pyrimido[4,5-d]pyrimidine-2,4(1H,3H)-dione], the IC50 in test [1] was 87 nM; in test [2], 7 nM.

Turning to `Cc1cc(Nc2ncc3c(=O)n(-c4c(Cl)cccc4Cl)c(=O)n(C)c3n2)ccc1N1CCN(C)CC1` [Example 3, 3-(2,6-dichlorophenyl)-1-methyl-7-{[3-methyl-4-(4-methylpiperazin-1-yl)phenyl]amino}pyrimido[4,5-d]pyrimidine-2,4(1H,3H)-dione], the IC50 in test [1] is 45 nM; in test [2] it was 8 nM.

In the case of `CC(=O)N1CCN(c2ccc(Nc3ncc4c(=O)n(-c5c(Cl)cccc5Cl)c(=O)[nH]c4n3)cc2C)CC1` [Example 9, 7-{[4-(4-acetylpiperazin-1-yl)-3-methylphenyl]amino}-3-(2,6-dichlorophenyl)pyrimido[4,5-d]pyrimidine-2,4(1H,3H)-dione], the IC50 in test [2] came out at 4 nM.

For `Cc1cc(Nc2ncc3c(=O)n(-c4c(C)cccc4Cl)c(=O)[nH]c3n2)ccc1N1CCN(C)CC1` [Example 2, 3-(2-chloro-6-methylphenyl)-7-{[3-methyl-4-(4-methylpiperazin-1-yl)phenyl]amino}pyrimido[4,5-d]pyrimidine-2,4(1H,3H)-dione], the values for the IC50 in test [1] and in test [2] were 79 nM and 9 nM, respectively.

Take `CN1CCCN(c2ccc(Nc3ncc4c(=O)n(-c5c(Cl)cccc5Cl)c(=O)[nH]c4n3)cc2)CC1` [Example 31, 3-(2,6-dichlorophenyl)-7-{[4-(4-methyl-1,4-diazepan-1-yl)phenyl]amino}pyrimido[4,5-d]pyrimidine-2,4(1H,3H)-dione]: the IC50 in test [2] was determined as 4 nM.

For `O=C(CO)N1CCN(c2ccc(Nc3ncc4c(=O)n(-c5c(Cl)cccc5Cl)c(=O)[nH]c4n3)cc2)CC1` [Example 32, 3-(2,6-dichlorophenyl)-7-({4-[4-(hydroxyacetyl)piperazin-1-yl]phenyl}amino)pyrimido[4,5-d]pyrimidine-2,4(1H,3H)-dione], 6 nM corresponded to half-maximal inhibition in test [2] (IC50).
